The text below walks through data of ChEMBL document CHEMBL3352791, “Thioaryl naphthylmethanone oxime ether analogs as novel anticancer agents” (J Med Chem, 2014).

In test [1] the test system is MCF7. Nature of the test: Antiproliferative activity against human ER-negative MCF7 cells after 24 hrs by MTT assay. Type of test: functional, cell-based. On the technique in general: Tetrazolium assays rely on reduction of a dye to a coloured formazan, in cell work by metabolically active cells.
The subject of test [2] is HeLa. Nature of the test: Antiproliferative activity against human HeLa cells after 24 hrs by MTT assay. In kind it is functional, cell-based.
A short description of test [3]: Antiproliferative activity against human prostate, androgen receptor positive DU145 cells after 24 hrs by MTT assay. In kind it is functional, cell-based, DU-145.
Test [4] concerns Ishikawa. Nature of the test: Antiproliferative activity against human ER-positive Ishikawa cells after 24 hrs by MTT assay. Type of test: functional, cell-based.
Test [5] concerns MDA-MB-231. Briefly: Antiproliferative activity against human ER-positive MDA-MB-231 cells after 24 hrs by MTT assay. Type of test: functional, cell-based.

SMILES strings stand for the structures.

Regarding `CSc1ccc(/C(=N\OCCCN2CCOCC2)c2cccc3ccccc23)cc1`, the EC50 (commonly the concentration at which the effect is half-maximal) in test [1] (Homo sapiens, MCF7, 24 h) was above 50 µM; in test [2] (Homo sapiens, HeLa, 24 h), above 50 µM; in test [3] (Homo sapiens, DU-145, 24 h), above 50 µM; in test [4] (Homo sapiens, Ishikawa, 24 h) it was above 50 µM; in test [5] (Homo sapiens, MDA-MB-231, 24 h), above 50 µM.

`O=C(c1ccc(OCCN2CCCCC2)cc1)c1c(-c2ccc(O)cc2)sc2cc(O)ccc12` [RALOXIFENE]: the EC50 in test [1] (Homo sapiens, MCF7, 24 h) was 23 µM; in test [3] (Homo sapiens, DU-145, 24 h), above 50 µM; in test [4] (Homo sapiens, Ishikawa, 24 h), 20 µM; in test [5] (Homo sapiens, MDA-MB-231, 24 h), 30 µM.

For `COc1ccc(/C(=N\OCCN2CCCC2)c2cccc3ccccc23)cc1`, the EC50 in test [1] (Homo sapiens, MCF7, 24 h) is 25 µM; in test [2] (Homo sapiens, HeLa, 24 h) it was 20 µM; in test [3] (Homo sapiens, DU-145, 24 h) it was above 50 µM; in test [4] (Homo sapiens, Ishikawa, 24 h), above 50 µM; in test [5] (Homo sapiens, MDA-MB-231, 24 h) it was above 50 µM.

On to `CSc1ccc(/C(=N\OCCCN2CCC(C)CC2)c2cccc3ccccc23)cc1`, for which the EC50 was 6.5 µM in test [1] (Homo sapiens, MCF7, 24 h); above 50 µM in test [2] (Homo sapiens, HeLa, 24 h); 10 µM in test [3] (Homo sapiens, DU-145, 24 h); above 50 µM in test [4] (Homo sapiens, Ishikawa, 24 h); 20 µM in test [5] (Homo sapiens, MDA-MB-231, 24 h).

For `CCN(CC)CCO/N=C(\c1ccc(SC)cc1)c1cccc2ccccc12` [listing 1 of 3 here], the EC50 in test [1] (mcf7) is 18.5 µM; in test [3] (du-145), 20 µM; in test [4] (ishikawa) it was 20 µM; in test [5] (mda-mb-231), 14.8 µM.

Turning to `CSc1ccc(/C(=N\OCCCCN2CCCC2)c2cccc3ccccc23)cc1`, the EC50 in test [1] (Homo sapiens, MCF7, 24 h) was above 50 µM; in test [2] (Homo sapiens, HeLa, 24 h), above 50 µM; in test [3] (Homo sapiens, DU-145, 24 h), above 50 µM; in test [4] (Homo sapiens, Ishikawa, 24 h), above 50 µM; in test [5] (Homo sapiens, MDA-MB-231, 24 h), above 50 µM.

As to `CSc1ccc(/C(=N\OCCN2CCCCCC2)c2cccc3ccccc23)cc1`, the EC50 in test [1] (Homo sapiens, MCF7, 24 h) is above 50 µM; in test [2] (Homo sapiens, HeLa, 24 h), above 50 µM; in test [3] (Homo sapiens, DU-145, 24 h) it was above 50 µM; in test [4] (Homo sapiens, Ishikawa, 24 h) it was above 50 µM; in test [5] (Homo sapiens, MDA-MB-231, 24 h), above 50 µM.

Consider `COc1ccc(/C(=N\OCCN(C)C)c2cccc3ccccc23)cc1`, for which the EC50 was 15 µM in test [1] (Homo sapiens, MCF7, 24 h); 23 µM in test [2] (Homo sapiens, HeLa, 24 h); above 50 µM in test [3] (Homo sapiens, DU-145, 24 h); above 50 µM in test [4] (Homo sapiens, Ishikawa, 24 h); above 50 µM in test [5] (Homo sapiens, MDA-MB-231, 24 h).

Take `COc1ccc(/C(=N\OCCCN(C)C)c2cccc3ccccc23)cc1`: the EC50 in test [1] (Homo sapiens, MCF7, 24 h) was 20.5 µM; in test [2] (Homo sapiens, HeLa, 24 h) it was above 50 µM; in test [3] (Homo sapiens, DU-145, 24 h), above 50 µM; in test [4] (Homo sapiens, Ishikawa, 24 h), above 50 µM; in test [5] (Homo sapiens, MDA-MB-231, 24 h), above 50 µM.

In the case of `COc1ccc(/C(=N\OCCN2CCCCC2)c2cccc3ccccc23)cc1`, the EC50 is 18 µM in test [1] (Homo sapiens, MCF7, 24 h); 15 µM in test [2] (Homo sapiens, HeLa, 24 h); above 50 µM in test [3] (Homo sapiens, DU-145, 24 h); above 50 µM in test [4] (Homo sapiens, Ishikawa, 24 h); above 50 µM in test [5] (Homo sapiens, MDA-MB-231, 24 h).

Consider `CSc1ccc(/C(=N\OCCN2CCCCC2)c2cccc3ccccc23)cc1`, for which the EC50 worked out at 13.5 µM in test [1] (Homo sapiens, MCF7, 24 h); 13.5 µM in test [2] (Homo sapiens, HeLa, 24 h); 10 µM in test [3] (Homo sapiens, DU-145, 24 h); 10 µM in test [4] (Homo sapiens, Ishikawa, 24 h); 8.8 µM in test [5] (Homo sapiens, MDA-MB-231, 24 h).

Take `CCN(CC)CCO/N=C(\c1ccc(SC)cc1)c1cccc2ccccc12` [listing 2 of 3 here]: the EC50 stood at 13.5 µM in test [1] (mcf7); 20 µM in test [2] (hela); 25 µM in test [3] (du-145); 25 µM in test [4] (ishikawa); 8.8 µM in test [5] (mda-mb-231).

In the case of `CSc1ccc(/C(=N\OCCN2CCOCC2)c2cccc3ccccc23)cc1`, the EC50 is above 50 µM in test [1] (Homo sapiens, MCF7, 24 h); above 50 µM in test [2] (Homo sapiens, HeLa, 24 h); above 50 µM in test [3] (Homo sapiens, DU-145, 24 h); above 50 µM in test [4] (Homo sapiens, Ishikawa, 24 h); above 50 µM in test [5] (Homo sapiens, MDA-MB-231, 24 h).

In the case of `CSc1ccc(/C(=N\OCCN(C(C)C)C(C)C)c2cccc3ccccc23)cc1`, the EC50 in test [1] (Homo sapiens, MCF7, 24 h) was above 50 µM; in test [2] (Homo sapiens, HeLa, 24 h), above 50 µM; in test [3] (Homo sapiens, DU-145, 24 h) it was above 50 µM; in test [4] (Homo sapiens, Ishikawa, 24 h), above 50 µM; in test [5] (Homo sapiens, MDA-MB-231, 24 h) it was above 50 µM.

Turning to `CCOC(=O)CO/N=C(\c1ccc(SC)cc1)c1cccc2ccccc12`, the concentration giving a half-maximal response (EC50) in test [1] (Homo sapiens, MCF7, 24 h) was 30 µM; in test [2] (Homo sapiens, HeLa, 24 h), 18 µM; in test [3] (Homo sapiens, DU-145, 24 h) it was above 50 µM; in test [4] (Homo sapiens, Ishikawa, 24 h), above 50 µM; in test [5] (Homo sapiens, MDA-MB-231, 24 h), 35 µM.

For `CCN(CC)CCO/N=C(\c1ccc(SC)cc1)c1cccc2ccccc12` [listing 3 of 3 here], the EC50 in test [1] (mcf7) turned out to be 14.8 µM; in test [3] (du-145), 18.5 µM; in test [4] (ishikawa), 15 µM; in test [5] (mda-mb-231), 11.2 µM.
